Test systems include LOX IMVI melanoma; SF-295 CNS; KM12 colon; T-47D breast; HCT-15 colon; UACC-257 melanoma; SN12C renal; BT-549 breast.
Holding throughout (assay): growth of human tumour cells (NCI), 48 h

“And” between values parts separate entries of the source, which are not always exact repeats. Identical values can stand only once.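 Grown in 96-well plates, cells were treated for 48 hours with each compound at five concentrations. Insufficient inhibition: endpoint recorded as highest concentration tested. Abbreviation: GI50, concentration required for 50% inhibition of growth. TGI: concentration producing complete growth inhibition.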

On to `Cn1c(=O)c(Oc2ccc(F)cc2F)cc2cnc(NC3CCOCC3)nc21`, for which the GI50 with LOX IMVI melanoma, with SF-295 CNS, with KM12 colon, in the test with T-47D breast, in the test on HCT-15 colon and in the test with UACC-257 melanoma was greater than 25 µM throughout. Also, the GI50 in the test with SN12C renal and in the test on BT-549 breast was greater than 25 µM each time. In addition, the TGI in the test on LOX IMVI melanoma, with SF-295 CNS, in the test with KM12 colon, with T-47D breast, in the test on HCT-15 colon and in the test on UACC-257 melanoma was greater than 25 µM each time. In addition, the TGI in the test with SN12C renal and in the test on BT-549 breast was greater than 25 µM each time.

As to `COc1ccc(-c2[nH]nc(N)c2-c2cc(OC)c(OC)c(OC)c2)cc1`, the GI50 is 0.0756 µM in the test with LOX IMVI melanoma; 0.0248 µM in the test on SF-295 CNS; 0.0246 µM in the test on KM12 colon; 0.0345 µM with HCT-15 colon; 8.03 µM in the test on UACC-257 melanoma; 0.0716 µM with SN12C renal. Moreover, in the test with BT-549 breast, the GI50 is 0.0873 µM. Also, the TGI in the test on LOX IMVI melanoma was greater than 100 µM; in the test with SF-295 CNS, greater than 100 µM; in the test on KM12 colon, 9.79 µM; in the test with HCT-15 colon, greater than 100 µM; with UACC-257 melanoma, greater than 100 µM; in the test with SN12C renal, greater than 57.4 µM. In addition, the TGI in the test on BT-549 breast came out at 4.29 µM.

`O=C1c2cc(F)ccc2-c2c1c1ccc([N+](=O)[O-])cc1c(=O)n2CCCBr`: the GI50 in the test on LOX IMVI melanoma was 7.62 µM; with SF-295 CNS, 17.8 µM; with KM12 colon it was 20.9 µM; with T-47D breast, 7.53 µM; with HCT-15 colon it was 56.8 µM; with UACC-257 melanoma it was 13.1 µM. Also, the GI50 in the test with SN12C renal is 27.4 µM. Also, the TGI was 38.2 µM in the test with LOX IMVI melanoma; greater than 100 µM in the test on SF-295 CNS; greater than 100 µM in the test on KM12 colon; greater than 100 µM in the test with T-47D breast; greater than 100 µM in the test on HCT-15 colon; 82.6 µM in the test with UACC-257 melanoma. In the test on SN12C renal, the TGI is greater than 100 µM.

For the molecule `O=C1CC(CC(OCc2ccccc2)C(OCc2ccccc2)C(COCc2ccccc2)OCc2ccccc2)CC(=O)N1` (configuration not stated), the GI50 in the test on LOX IMVI melanoma was > 100 µM and 10.7 µM; in the test with SF-295 CNS, > 100 µM and 11.2 µM; in the test on UACC-257 melanoma, > 100 µM and 16.3 µM; with SN12C renal, > 100 µM and 18.6 µM; in the test with BT-549 breast, > 100 µM and 12.6 µM. For the same molecule, the TGI is > 100 µM and 22.5 µM in the test on LOX IMVI melanoma; > 100 µM and 28.4 µM in the test on SF-295 CNS; > 100 µM and 21.3 µM with KM12 colon; > 100 µM and 47.2 µM in the test on HCT-15 colon; > 100 µM and 36.4 µM in the test with UACC-257 melanoma; > 100 µM and 54.1 µM in the test on SN12C renal. In addition, the TGI in the test with BT-549 breast is > 100 µM and 25.3 µM.

Turning to `COC(=O)[C@@H](C)C[C@H](Cc1ccccc1)NC(=O)c1csc([C@@H](C[C@H](C(C)C)N(C)C(=O)[C@@H](NC(=O)[C@H]2CCCN2C)C2CC2)OC(C)=O)n1`, the GI50 is 0.00477 µM and 0.0025 µM in the test with LOX IMVI melanoma; 0.00302 µM and 0.0025 µM in the test with SF-295 CNS; 0.00222 µM and 0.0025 µM in the test with KM12 colon; 0.00495 µM and 0.0025 µM with HCT-15 colon; 0.22 µM in the test on UACC-257 melanoma; 0.000981 µM and 0.0025 µM with SN12C renal. The GI50 in the test with BT-549 breast is 0.000664 µM and < 0.0025 µM. Moreover, the TGI with LOX IMVI melanoma, in the test with SF-295 CNS, with KM12 colon, with HCT-15 colon and in the test on SN12C renal was greater than 25 µM each time.

As for `CC(=O)OCC1OC(n2ncc(=O)[nH]c2=O)C(OC(C)=O)C1OC(C)=O` (configuration not stated), the TGI with LOX IMVI melanoma, in the test with SF-295 CNS, with KM12 colon, in the test with T-47D breast, in the test on HCT-15 colon and with SN12C renal was greater than 100 µM in each case.

Consider `CCNCCNc1cc(-c2ccc(C(F)(F)F)cc2)c(C#N)c2nc3cc(Cl)c(Cl)cc3n12`, for which the GI50 with LOX IMVI melanoma was 0.543 µM; in the test on SF-295 CNS, 1.73 µM; with KM12 colon, 1.69 µM; in the test with T-47D breast, 1.94 µM; in the test on HCT-15 colon it was 0.289 µM; with UACC-257 melanoma, 1.9 µM. In addition, the GI50 in the test with SN12C renal was 1.77 µM. Also, the TGI with LOX IMVI melanoma was determined as 1.88 µM; in the test with SF-295 CNS, 3.2 µM; in the test with KM12 colon, 3.2 µM; in the test with T-47D breast, 3.78 µM; in the test on HCT-15 colon it was 0.935 µM; in the test on UACC-257 melanoma, 3.39 µM. This molecule also yielded a TGI with SN12C renal of 3.46 µM.

Regarding `O=S(=O)(NCCCNc1cc(-c2cn(-c3ccccc3)nc2-c2cccc(O)c2)ccn1)c1ccc(Br)cc1`, the GI50 with LOX IMVI melanoma was 1.49 µM; in the test with SF-295 CNS, 1.36 µM; in the test on KM12 colon, 1.65 µM; with T-47D breast, 1.76 µM; with HCT-15 colon, 1.32 µM; in the test on SN12C renal, 2.75 µM. Besides, in the test on BT-549 breast, the GI50 is 1.68 µM. The TGI in the test on LOX IMVI melanoma was found to be 2.9 µM; with SF-295 CNS it was 3.09 µM; in the test on KM12 colon it was 3.94 µM; in the test with T-47D breast, 6.38 µM; with HCT-15 colon it was 3.51 µM; with SN12C renal, 9.8 µM. In the test with BT-549 breast, this molecule yielded a TGI of 4.32 µM.

On to `O=C(O)Cc1ccc(N=Nc2c(O)c(C(=O)O)cc3ccccc23)cc1`, for which the TGI in the test with SF-295 CNS, in the test with KM12 colon, with T-47D breast, with HCT-15 colon, in the test with UACC-257 melanoma and with SN12C renal was greater than 100 µM throughout. This molecule also showed a TGI in the test with BT-549 breast greater than 100 µM.

Consider `C=CCOC(=O)Nc1cccn([C@H](CC(C)C)C(=O)NCCC(C)C)c1=O`, for which the GI50 in the test with SF-295 CNS is 18.7 µM; with KM12 colon, 92.8 µM; in the test with T-47D breast, 68.2 µM; with HCT-15 colon, 84.5 µM; in the test on UACC-257 melanoma, 66.5 µM; with SN12C renal, greater than 100 µM. Moreover, in the test on BT-549 breast, the GI50 was greater than 100 µM. The TGI with SF-295 CNS, in the test with KM12 colon, in the test with T-47D breast, in the test on HCT-15 colon, with UACC-257 melanoma and with SN12C renal was greater than 100 µM throughout. The molecule also returned a TGI with BT-549 breast greater than 100 µM.

With `O=C1CC(N2C(=O)/C(=C/C(Cl)=C\c3ccc([N+](=O)[O-])cc3)SC2=S)C(=O)N1c1ccc(O)cc1` (configuration not stated), the GI50 is 1.31 µM with SF-295 CNS; 1.83 µM in the test with KM12 colon; 2.45 µM with T-47D breast; 0.472 µM in the test on HCT-15 colon; 2.48 µM in the test on UACC-257 melanoma; 1.6 µM in the test with SN12C renal. Moreover, the GI50 in the test on BT-549 breast is 2.03 µM. In addition, the TGI in the test on SF-295 CNS was 2.7 µM; in the test with KM12 colon, 4.64 µM; in the test on T-47D breast, 15.8 µM; with HCT-15 colon, 1.95 µM; with UACC-257 melanoma, 9.12 µM; in the test on SN12C renal, 5.88 µM. Also, the TGI in the test on BT-549 breast is 4.21 µM.
